Assay results as given in ChEMBL document CHEMBL1149943, “2-aminoalchohol immunosuppressants: Structure-activity relationships” (Bioorg Med Chem Lett, 1996).

Species on record: Mus musculus
Experiment: Compound was tested for its effect on mouse allogenic mixed lymphocyte reaction(MLR).
Assay type: functional, organism-based

Compound	IC50 [nM]
CCCCCCCCc1ccc(CC[C@@H](N)CO)cc1	108
CCCCCCCCCCCCCC[C@H](N)CO	137
CCCCCCCCCCCCCC[C@@H](N)CO	68.8
CCCCCCCCc1ccc(CC[C@H](N)CO)cc1	427
CCCCCCCCCCCCCCCCCC[C@H](N)CO	1390
CCCCCCCCCCCCCCCCCC[C@@H](N)CO	533
CCCCCCCCc1ccc(CCC(N)CO)cc1 (stereo not given)	211
CCCCCCCCCCCCCCC(N)CO (racemic)	98.3
CCCCCCCCCCCCCCCCCCC(N)CO (racemic)	867
CCCCCCCCc1ccc(CCC(N)(CO)CO)cc1 [FINGOLIMOD]	67.4
